# Assay results as given in patent publication US6706740B2, “Fungicidal heterocyclic aromatic amides and their compositions, methods of use and preparation” (Dow AgroSciences LLC, priority 1999, dated 2004).
# Where two headings read alike, the source gives them in different places.
# Assays:
# [1] = test system: Magnaporthe grisea (Pyricularia oryzae—PYRIOR); assay: microbe, parasite or virus in culture; format: cell-based; conditions: Pyricularia oryzae, read-out: PYRIOR in vitro Growth Inhibition
# [2] = test system: Rhizoctonia solani (RHIZSO); assay: microbe, parasite or virus in culture; format: cell-based; conditions: Rhizoctonia solani, read-out: RHIZSO in vitro Growth Inhibition
# [3] = test system: Mycosphaerella graminicola (Septoria tritici—SEPTTR); assay: In vitro fungal growth inhibition, Mycosphaerella graminicola (SEPTTR); format: cell-based; conditions: Zymoseptoria tritici, read-out: SEPTTR in vitro Growth Inhibition
# [4] = test system: Stagonospora nodorum (Leptosphaeria nodorum—LEPTNO); assay: In vitro fungal growth inhibition, Stagonospora nodorum (LEPTNO); format: cell-based; conditions: Leptosphaeria, read-out: LEPTNO in vitro Growth Inhibition
# Ustilago maydis (USTIMA) = assay: microbe, parasite or virus in culture; format: cell-based; conditions: Mycosarcoma maydis, read-out: USTIMA in vitro Growth Inhibition
# [5] = test system: Phytophthora infestans (PHYTIN); assay: microbe, parasite or virus in culture; format: cell-based; conditions: Phytophthora infestans, read-out: PHYTIN in vitro Growth Inhibition
# [6] = test system: Phytophthora infestans—PHYTIN; assay: whole plant or invertebrate; format: in vivo; conditions: Phytophthora, in Solanum lycopersicum, 24 h, read-out: PHYTIN in vivo 1 Day Protectant
# [7] = test system: Puccinia recondita—PUCCRT; assay: Brown Rust of Wheat, in vivo whole plant, 24 Hour Protectant; conditions: Puccinia, control of fungal infection vs untreated plants, read-out: PUCCRT in vivo 1 Day Protectant
# Erysiphe graminis—ERYSGT = assay: Powdery Mildew of Wheat, in vivo whole plant, 24 Hour Protectant; conditions: Erysiphe, control of fungal infection vs untreated plants, read-out: ERYSGT in vivo 1 Day Protectant
# Septoria tritici—SEPTTR = assay: Leaf Blotch of Wheat, in vivo whole plant, 24 Hour Protectant; conditions: Zymoseptoria tritici, 24 h, control of fungal infection vs untreated plants, read-out: SEPTTR in vivo 1 Day Protectant
# [8] = test system: Leptosphaeria nodorum—LEPTNO; assay: Glume Blotch of Wheat, in vivo whole plant, 24 Hour Protectant; conditions: Leptosphaeria, control of fungal infection vs untreated plants, read-out: LEPTNO in vivo 1 Day Protectant
# [9] = 100 ppm spray, wheat, 24 hour protectant
# [10] = wheat plants sprayed at 100 ppm, inoculated after 24 hours
# [11] = 100 ppm spray, 24 hour protectant, wheat
SMILES,inhibition at 25 ppm [1] [%],inhibition at 25 ppm [2] [%],inhibition at 25 ppm ([3]; 25 ppm in growth medium) [%],inhibition at 25 ppm ([4]; 25 ppm in growth medium) [%],inhibition at 25 ppm (Ustilago maydis (USTIMA)) [%],inhibition at 25 ppm [5] [%],pest or weed control at 100 ppm [6] [%],melting point [°C],inhibition at 25 ppm ([3]; 25 ppm in the growth medium) [%],inhibition at 25 ppm ([4]; 25 ppm in the growth medium) [%],"pest or weed control at 100 ppm [7, 10] [%]",pest or weed control at 100 ppm (Erysiphe graminis—ERYSGT; [10]) [%],pest or weed control at 100 ppm (Septoria tritici—SEPTTR; [10]) [%],"pest or weed control at 100 ppm [8, 10] [%]",also measured
COc1ccnc(C(=O)Nc2cccc(C(=O)Nc3ccc(C(F)(F)F)cc3)c2)c1O [Compound 450],< 80,< 80,< 80,< 80,< 80,< 80,< 25,> 260,,,,,,,"pest or weed control at 100 ppm [7, 9]: < 25%; pest or weed control at 100 ppm (Erysiphe graminis—ERYSGT; [9]): < 25%; pest or weed control at 100 ppm (Septoria tritici—SEPTTR; [9]): 25 to 74%; pest or weed control at 100 ppm [8, 9]: 25 to 74%"
COc1ccnc(C(=O)Nc2ccc(Oc3ccnc(C(F)(F)F)c3)cc2)c1O [Compound 465],> 80,< 80,,,< 80,< 80,< 25,160 to 162,< 80,< 80,< 25,< 25,25 to 74,25 to 74,
CC1(C)CC(NC(=O)c2nnc(O)nc2O)CC(C)(C)C1 [Compound 543],< 80,< 80,,,< 80,< 80,< 25,283 to 285,< 80,< 80,< 25,< 25,< 25,25 to 74,
Cc1ccnc(C(=O)Nc2ccc(Oc3cccc(C(F)(F)F)c3)cc2)c1O [Compound 238],< 80,< 80,< 80,< 80,< 80,< 80,< 25,105 to 107,,,,,,,"pest or weed control at 100 ppm [7, 11]: < 25%; pest or weed control at 100 ppm (Erysiphe graminis—ERYSGT; [11]): < 25%; pest or weed control at 100 ppm (Septoria tritici—SEPTTR; [11]): < 25%; pest or weed control at 100 ppm [8, 11]: 25 to 74%"
COc1ccnc(C(=O)NC2COC(=O)CC3(CCCCC3)CC(=O)OC2)c1O [Compound 380],< 80,< 80,< 80,< 80,< 80,< 80,< 25,107 to 108,,,,,,,"pest or weed control at 100 ppm [7, 9]: < 25%; pest or weed control at 100 ppm (Erysiphe graminis—ERYSGT; [9]): 25 to 74%; pest or weed control at 100 ppm (Septoria tritici—SEPTTR; [9]): < 25%; pest or weed control at 100 ppm [8, 9]: 25 to 74%"
CC(C)(C)CNC(=O)c1cccnc1O [Compound 514],< 80,< 80,,,< 80,< 80,< 25,180 to 181,< 80,< 80,< 25,< 25,< 25,25 to 74,
Cn1cc(C(=O)NC2CC(C)(C)CC(C)(C)C2)c(O)n1 [Compound 557],< 80,< 80,,,< 80,> 80,< 25,205 to 208,< 80,< 80,25 to 74,< 25,25 to 74,25 to 74,
COc1ccnc(C(=O)Nc2cccc(OC3CC(C)(C)OC(C)(C)C3)c2)c1O [Compound 460],< 80,< 80,< 80,< 80,< 80,< 80,< 25,149 to 153,,,,,,,"pest or weed control at 100 ppm [7, 9]: 25 to 74%; pest or weed control at 100 ppm (Erysiphe graminis—ERYSGT; [9]): 25 to 74%; pest or weed control at 100 ppm (Septoria tritici—SEPTTR; [9]): 25 to 74%; pest or weed control at 100 ppm [8, 9]: 25 to 74%"
O=C(NCc1cccc(Cl)c1)c1ncccc1O [Compound 219],> 80,> 80,> 80,> 80,> 80,> 80,< 25,65 to 67,,,,,,,"pest or weed control at 100 ppm [7, 11]: < 25%; pest or weed control at 100 ppm (Erysiphe graminis—ERYSGT; [11]): < 25%; pest or weed control at 100 ppm (Septoria tritici—SEPTTR; [11]): < 25%; pest or weed control at 100 ppm [8, 11]: < 25%"
CC1(C)CC(NC(=O)c2cncnc2O)CC(C)(C)C1 [Compound 539],< 80,< 80,,,< 80,< 80,< 25,263 to 265,> 80,< 80,25 to 74,< 25,25 to 74,25 to 74,
O=C(NCc1ccccn1)c1nc(Br)ccc1O [Compound 483],< 80,< 80,,,< 80,< 80,< 25,124 to 126,< 80,> 80,< 25,< 25,< 25,< 25,
O=C(NC(Cc1ccccc1)c1ccccc1)c1cccnc1O (stereo not drawn) [Compound 519],< 80,< 80,,,< 80,< 80,< 25,190 to 192,< 80,< 80,< 25,< 25,< 25,25 to 74,
CC(C)C(=O)OC1CCC(NC(=O)c2ncccc2O)CC1 (stereo not drawn) [Compound 210],< 80,< 80,< 80,< 80,< 80,< 80,< 25,139 to 142,,,,,,,"pest or weed control at 100 ppm [7, 11]: < 25%; pest or weed control at 100 ppm (Erysiphe graminis—ERYSGT; [11]): < 25%; pest or weed control at 100 ppm (Septoria tritici—SEPTTR; [11]): 25 to 74%; pest or weed control at 100 ppm [8, 11]: < 25%"
COc1ccnc(C(=O)Nc2ccc(Oc3cc(Cl)nc(C(F)(F)F)c3)cc2)c1O [Compound 467],< 80,< 80,,,< 80,< 80,< 25,198 to 201,< 80,> 80,< 25,25 to 74,25 to 74,25 to 74,
COc1ccnc(C(=O)Nc2ccc(Cc3cccc(C(F)(F)F)c3)cc2)c1O [Compound 404],< 80,< 80,< 80,< 80,> 80,< 80,< 25,126 to 127,,,,,,,"pest or weed control at 100 ppm [7, 9]: 25 to 74%; pest or weed control at 100 ppm (Erysiphe graminis—ERYSGT; [9]): 25 to 74%; pest or weed control at 100 ppm (Septoria tritici—SEPTTR; [9]): 25 to 74%; pest or weed control at 100 ppm [8, 9]: 25 to 74%"
